Test results reported in US20110104057A1, “Novel [F-18]-labelled L-glutamic acid and L-glutamine derivatives (II), their use and processes for their preparation” (BAYER SCHERING PHARMA AKTIENGESELLSCHAFT, priority 2008, published 2011).

Tests used:
A549 cells = assay: competition cell experiment: inhibition of the uptake of 4R/S-[F-18]F-L-glutamic acid (tracer); type: cell-based, human; conditions: for % Tracer uptake: A549 cells, 10 min of incubation with 0.250 MBq of 4R/S-[F-18]F-L-Glu in PBS buffer, competitor concentration 1 mM, control = 100.0; for inhibition of tracer uptake: competitor 1 mM, tracer 4R/S-[F-18]F-L-glutamic acid
Protocol: The uptake of the glutamic acid derivatives according to the invention into tumour cells was investigated in cell experiments. Here, the uptake of a radiolabelled glutamic acid derivative (4R/S—[F-18]F-L-glutamic acid) was examined in the presence of the compounds according to the invention (competition experiments). The compounds according to the invention were employed in excess (1 mM) over 4R/S—[F-18]F-L-glutamic acid (tracer).
FIG. 1: graphic representation of the inhibition of the cellular uptake of 4R/S—[F-18]F-L-Glu by compounds according to the invention branched in the 4-position in A549 cells (human non-small-cell bronchial carcinoma) after 10 min of incubation.

A460 tumour cells = assay: cellular uptake of the F-18-labelled compound in tumour cells; type: cell-based, human; conditions: for uptake, % of the dose per 100 000 cells: after 30 min of incubation
Source text: Following labelling with F-18, (4S)-4-(6-[F-18]fluorohexyl)-L-Glu was examined in cell experiments with A460 tumour cells (human non-small-cell bronchial carcinoma).

[1] = tested on: rats bearing H460 tumours; assay: PET imaging in rats bearing H460 tumours; type: in vivo
Protocol: (§1) (2S,4S)-2-Amino-4-(6-[F-18]fluorohexyl)pentanedioic acid was studied in rats bearing H460 tumours using PET imaging and subsequent organ distribution.
(§2) The highest enrichment at 0.52% of the injected dose per g in the tumour was measured at a time of 100 min after injection. […] Thus, in these organs, an uptake of 0.36% ID/g and 0.20% ID/g, respectively, was observed after 100 min. Uptake into the bones was 0.43% ID/g.
60 min after i.v. administration of 15 MBq of (2S,4S)-2-amino-4-(6-[F-18]fluorohexyl)pentanedioic acid to rats bearing H460 tumours, data acquisition with a PET scanner (Inveon) was started for 30 minutes.
FIG. 3. PET study of 60 to 90 min after injection of (2S,4S)-2-amino-4-(6-[F-18]fluorohexyl)pentanedioic acid into mice bearing H460 tumours (analysis of sections)
FIG. 4. PET study of 60 to 90 min after injection of (2S,4S)-2-amino-4-(6-[F-18]fluorohexyl)pentanedioic acid into mice bearing H460 tumours (whole body imaging)

[2] = tested on: rats bearing H460 tumours; assay: organ distribution after i.v. administration to animals bearing H460 tumours; type: in vivo; conditions: 100 min after i.v. administration of 15 MBq
Protocol: as §1, §2

[3] = PET 60-90 min after i.v. administration of 15 MBq

With `NC(CC(OC1CC(F)C1)C(=O)O)C(=O)O` [(4S)-4-(3-fluorocyclobutoxy)-Glu, 2-Amino-4-(3-fluorocyclobutoxy)pentanedioic acid] the “% Tracer uptake” value (A549 cells) was 5.7% and the “inhibition of tracer uptake” value (A549 cells) was over 90%.
`N[C@@H](CCC(=O)O)C(=O)O` [L-Glu, L-configured glutamic acid] was tested, and the “% Tracer uptake” value (A549 cells) was 12.6% and the “inhibition of tracer uptake” value (A549 cells) was 87%.
In the case of `N[C@@H](C[C@H](CCCCCC[18F])C(=O)O)C(=O)O` [(2S,4S)-2-Amino-4-(6-[F-18]fluorohexyl)pentanedioic acid], the “uptake, % of the dose per 100 000 cells” value (A460 tumour cells; listed as 4-(6-[F-18]fluorohexyl)-L-Glu) is reported as 11.2 % of the dose per 100 000 cells, the “uptake, % of the dose per 100 000 cells” value (A460 tumour cells; listed as (4S)-4-(6-[F-18]fluorohexyl)-L-Glu) is reported as 11.2 % of the dose per 100 000 cell and the “time course of cellular uptake” value (A460 tumour cells; tumour cells, F-18-labelled compound) is reported as “time-dependent cellular uptake”. For the same compound, the “PET image analysis: enrichment in the remainder of the body” value [1, 3] was “low enrichment”, the “PET image analysis: uptake into the H460 tumour” value [1, 3] was “high uptake” and the “PET study: uptake or excretion in the kidneys or pancreas” value ([1]; PET study) was “transient uptake or excretion”. The “% ID/g Tumour” value ([2]; H460 tumour) was 0.52 % ID/g, the “% ID/g Blood” value ([2]; H460 tumour bearing animals) was 0.04 % ID/g and the “% ID/g Bones” value ([2]; H460 tumour bearing animals) was 0.43 % ID/g. The “% ID/g Kidney” value ([2]; H460 tumour bearing animals) was 0.36 % ID/g, the “% ID/g Liver” value ([2]; H460 tumour bearing animals) was 0.08 % ID/g and the “% ID/g Muscle” value ([2]; H460 tumour bearing animals) was 0.02 % ID/g. For the same compound, the “% ID/g Pancreas” value ([2]; H460 tumour bearing animals) was 0.20 % ID/g.
For `NC(CC(F)C(=O)O)C(=O)O` (racemic) [4-(R/S)-fluoro-D/L-Glu], the “% Tracer uptake” value (A549 cells) was 16.3%.
For `N[C@@H](C[C@H](CCCF)C(=O)O)C(=O)O` [(4S)-4-(3-fluoropropyl)-Glu], the “% Tracer uptake” value (A549 cells) was 5.4%.
With `N[C@@H](C[C@H](CCCCCCF)C(=O)O)C(=O)O` [(4S)-4-(6-fluorohexyl)-Glu, (2S,4S)-2-Amino-4-(6-fluorohexyl)pentanedioic acid] the “% Tracer uptake” value (A549 cells) was 6.3% and the “inhibition of tracer uptake” value (A549 cells) was 94%.
For `C[C@@H](C[C@H](N)C(=O)O)C(=O)O` [(4S)-methyl-Glu], the “% Tracer uptake” value (A549 cells) was 7.7%.
For `N[C@@H](C[C@H](O)C(=O)O)C(=O)O` [(4S)-hydroxy-Glu], the “% Tracer uptake” value (A549 cells) was 13.2%.
